In US7674792B2, “5(Z)-5-(6-quinoxalinylmethylidene)-2-[2,6-dichlorophenyl)amino]-1,3-thiazol-4(5H)-one” (GlaxoSmithKline LLC, priority 2005, dated 2010):
Counter-ions that a name gives are not always drawn.

Tests used:
[1] = solubility in pH 7.4 phosphate buffer by HPLC; assay type: physicochemical; details: 25 °C, aqueous buffer; sodium salt; pH 7.4, 0.05M phosphate buffer; maximum total concentration 200 uM; 25 deg; read-out: Solvent Solubility at 25 deg, Water pH 7.4
Protocol: The solubility of each compound was determined as follows: two samples are prepared for each compound. One (the standard sample) contains the compound at a fixed concentration of 20 uM in an aqueous/organic mixed solvent cocktail. The other (the test sample) contains the compound at a maximum total concentration of 200 uM in pH 7.4, 0.05M phosphate buffer. The test sample is spun for 15 minutes to remove any undissovled solid. HPLC analyses are performed on these samples. The relative peak areas are used for computing the solubility. The sodium salt of each compound was used for the comparison.

[2] = bioavailability in the Beagle dog; assay type: in vivo
[3] = physical and chemical stability / hygroscopicity of the crystalline compound; assay type: physicochemical
[4] = oral blood exposure (DNAUC) in rats; assay type: in vivo, male Sprague-Dawley rats; set-up: unit not given here; details: sodium salt, oral gavage, dose ~1-4 mg/kg, 50% PEG-400, 10% ethanol, 40% of 40% (w/v) aqueous Encapsin
Protocol: Blood (120 microliters) was sampled at the following time intervals: 0, 20, 40, 60,120,180, 240, 360, 480, and 1440 min. […] The oral exposures of the sodium salt of Compound B and the sodium salt of Compound C were quantified by the same method.

| Structure (SMILES) | solubility [1] [µM] | bioavailability [2] | hygroscopicity [3] | physical and chemical stability [3] | Oral DNAUC rats (Sprague-Dawley) [4] |
| --- | --- | --- | --- | --- | --- |
| O=C1NC(=Nc2c(Cl)cccc2Cl)S/C1=C\c1ccc2nccnc2c1 [Compound A · Na, (5Z)-5-(6-quinoxalinylmethylidene)-2-[(2,6-dichlorophenyl)amino]-1,3-thiazol-4(5H)-one sodium salt] | 31 |  |  |  |  |
| O=C1NC(=Nc2c(Cl)cccc2Cl)S/C1=C\c1ccc2nccnc2c1 [Compound D, (5Z)-5-(6-quinoxalinylmethylidene)-2-[(2,6-dichlorophenyl)amino]-1,3-thiazol-4(5H)-one meglumine] |  | demonstrated bioavailability | non-hygroscopic | physically and chemically stable |  |
| O=C1NC(=Nc2ccccc2Cl)S/C1=C\c1ccc2nccnc2c1 [Compound C · Na, 2-(2-chloro-phenylimino)-5-(quinoxalin-6-ylmethylene)-thiazolidin-4-one sodium salt] |  |  |  |  | 0.34 |
| O=C1NC(=Nc2c(Cl)cccc2Cl)S/C1=C\c1ccc2ncccc2c1 [Compound B · Na, 2-(2,6-dichloro-phenylimino)-5-(quinolin-6-ylmethylene)-thiazolidin-4-one sodium salt, reference compound] | 6 |  |  |  | 0.49 |
